Assay results from patent US20230104936A1, “TRPML MODULATORS” (Casma Therapeutics, Inc., priority 2019, published 2023).

System: TFEB
Assay: TFEB nuclear translocation assay, HeLa wt cells
Assay type: cell-based
Settings: Homo sapiens, HeLa, 2 h, 2 hrs compound treatment, Table 1 does not say HeLa wt or TRPML1 KO
In short: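 HeLa wt or TRPML1 KO cells treated 2 hrs with compounds at 37° C, fixed in 4% PFA, immunostained with anti-TFEB plus Alexa 488 secondary and Hoechst. Imaged at ×20, four fields/well; read-out is nuclear/perinuclear-ring TFEB intensity ratio, reported as AC50.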

Structure (SMILES)	AC50 [nM]
CCOCC1(C)CCN(c2ccccc2NS(=O)(=O)c2ccc(S(=O)(=O)N(C)C)cc2)CC1 [Compound A-719, N4-{2-[4-(ethoxymethyl)-4-methylpiperidin-1-yl]phenyl}-N1,N1-dimethylbenzene-1,4-disulfonamide]	≤ 2000
CN(C)S(=O)(=O)c1ccc(S(=O)(=O)Nc2ccccc2N2CCC(c3ccc(Cl)cc3)CC2)cc1 [Compound A-47, N4-{2-[4-(4-chlorophenyl)piperidin-1-yl]phenyl}-N1,N1-dimethylbenzene-1,4-disulfonamide]	≤ 2000
CN(C)S(=O)(=O)c1ccc(S(=O)(=O)Nc2ccccc2N2CCC3(CC2)COC(C)(C)C3)cc1 [Compound A-440, N4-(2-{3,3-dimethyl-2-oxa-8-azaspiro[4.5]decan-8-yl}phenyl)-N1,N1-dimethylbenzene-1,4-disulfonamide]	≤ 2000
CN(C)S(=O)(=O)c1ccc(S(=O)(=O)N(C)c2ccc(F)cc2N2CCC3(CC2)COC(C)(C)C3)cc1 [Compound A-729, N1-(2-{3,3-dimethyl-2-oxa-8-azaspiro[4.5]decan-8-yl}-4-fluorophenyl)-N1,N4,N4-trimethylbenzene-1,4-disulfonamide]	2010 to 8000
C[S+]([O-])c1ccc(S(=O)(=O)Nc2ccccc2N2CCC(c3ccc(F)cc3F)CC2)cc1 (centres unmarked) [Compound A-160, N-{2-[4-(2,4-difluorophenyl)piperidin-1-yl]phenyl}-4-methanesulfinylbenzene-1-sulfonamide]	2010 to 8000
CN(C)S(=O)(=O)c1ccc(S(=O)(=O)Nc2ccccc2N2CCN(C(c3ccccc3)C(F)(F)F)CC2)cc1 (centres unmarked) [Compound A-545, N1,N1-dimethyl-N4-{2-[4-(2,2,2-trifluoro-1-phenylethyl)piperazin-1-yl]phenyl}benzene-1,4-disulfonamide]	≤ 2000
C[C@@H]1CN(CC2CCN(c3c(F)cccc3[C@H](C)S(=O)(=O)c3ccc(S(=N)(=O)N(C)C)cc3)CC2)C[C@H](C)O1 (single isomer, unassigned) [Compound A-931]	≤ 2000
COCC1(C)CCN(c2ccccc2NS(=O)(=O)Cc2cccc(S(=O)(=O)COC)c2)CC1 [Compound A-744, 1-(3-methoxymethanesulfonylphenyl)-N-{2-[4-(methoxymethyl)-4-methylpiperidin-1-yl]phenyl}methanesulfonamide]	≥ 10000
COCCOCCOCC1(C)CCN(c2ccccc2NS(=O)(=O)c2ccc(S(=O)(=O)N(C)C)cc2)CC1 [Compound A-519, N4-[2-(4-{[2-(2-methoxyethoxy)ethoxy]methyl}-4-methylpiperidin-1-yl)phenyl]-N1,N1-dimethylbenzene-1,4-disulfonamide]	≤ 2000
CN(C)S(=O)(=O)c1ccc(S(=O)(=O)N2CCC(N3CCC(c4ccc(Cl)cc4F)CC3)C2=O)cc1 (centres unmarked) [Compound A-71, 4-((3-(4-(4-chloro-2-fluorophenyl)piperidin-1-yl)-2-oxopyrrolidin-1-yl)sulfonyl)-N,N-dimethylbenzenesulfonamide]	≥ 10000
COCC1(C)CCN(c2ccccc2NS(=O)(=O)Cc2ccc(C(F)F)cc2)CC1 [Compound A-647, 1-[4-(difluoromethyl)phenyl]-N-{2-[4-(methoxymethyl)-4-methylpiperidin-1-yl]phenyl}methanesulfonamide]	8010 to 9990
COc1ccc(S(=O)(=O)Nc2ccccc2N2CCC(Oc3ccc(F)cc3F)C2)cc1 (centres unmarked) [Compound A-202, N-{2-[3-(2,4-difluorophenoxy)pyrrolidin-1-yl]phenyl}-4-methoxybenzene-1-sulfonamide]	≥ 10000
CN(C)S(=O)(=O)c1ccc(S(=O)(=O)N2C(=O)N(C3CCN(c4ccc(Cl)cc4F)CC3)C(=O)C2(C)C)cc1 [Compound A-294, 4-({3-[1-(4-chloro-2-fluorophenyl)piperidin-4-yl]-5,5-dimethyl-2,4-dioxoimidazolidin-1-yl}sulfonyl)-N,N-dimethylbenzene-1-sulfonamide]	≥ 10000
Cc1ccc(S(=O)(=O)Nc2ccccc2N2[C@@H]3CC[C@H]2C[C@H](c2ccccc2F)C3)cc1 [Compound A-119, N-{2-[(1R,3S,5S)-3-(2-fluorophenyl)-8-azabicyclo[3.2.1]octan-8-yl]phenyl}-4-methylbenzene-1-sulfonamide]	≤ 2000
